Reference: patent US8975232B2, “Macrocyclic kinase inhibitors and uses thereof” (President and Fellows of Harvard College, priority 2010, dated 2015)

Tests used:
[1] = tested on: panel of 44 human kinases; test: Kinase selectivity panel at 5 μM, Invitrogen SelectScreen; type: biochemical; conditions: includes all nine Src-family kinases
Procedure: (§1) Src IC50 determinations and single-point inhibition measurements were performed using Invitrogen's Z′-LYTE Tyr 02 assay kit according to the manufacturer's protocols. All kinase assays were performed at ATP concentrations near KM,ATP values, except where noted otherwise. Active human Src kinase was obtained from Millipore. For kinome profiling and IC50 determinations against non-Src kinases, compounds were submitted to Invitrogen's SelectScreen Kinase Profiling Service.

Src Thr338Ile = test: Inhibition of Src gatekeeper mutant; type: biochemical, chicken
Text: Kinase domain constructs of human c-Abl (residues 229-512), chicken c-Src (residues 251-533 and residues 83-533), murine Lck (residues 227-509), and human Hck (residues 166-445) were expressed as previously described (Seeliger, Young et al. 2005; Seeliger, Nagar et al. 2007; the entire contents of each of which are incorporated by reference herein). Mutations were introduced into chicken c-Src (residues 251-533) (T338I, C277Q, L297M) by site-directed mutagenesis and verified by DNA sequencing.
For the FRET-based endpoint assay, kinase assays were performed using Invitrogen's Z′-LYTE kinase assay using the Tyr 02 substrate peptide (based upon the optimal Abl substrate peptide […]) according to the manufacturer's instructions. Assays were performed at near KM ATP concentrations for full-length c-Src and full-length c-Src T338I-50 μM and 7 μM, respectively.

MAP4K4 (HGK) = MAP4K4 (HGK) (Homo sapiens, UniProt O95819); test: SelectScreen kinase profiling; type: biochemical; conditions: 5 μM
Procedure: as §1

LCK = LCK (Homo sapiens, UniProt P06239); test: SelectScreen kinase profiling; type: biochemical; conditions: 5 μM
Procedure: as §1

MARK2 = MARK2 (Homo sapiens, UniProt Q7KZI7); test: SelectScreen kinase profiling; type: biochemical; conditions: 5 μM
Procedure: as §1

LYN A = LYN A (Homo sapiens, UniProt P07948); test: SelectScreen kinase profiling; type: biochemical; conditions: 5 μM
Procedure: as §1

AMPK A1/B1/G1 = AMPK A1/B1/G1 (Homo sapiens, UniProt Q13131); test: SelectScreen kinase profiling; type: biochemical; conditions: 5 μM
Procedure: as §1

RET = RET (Homo sapiens, UniProt P07949); test: SelectScreen kinase profiling; type: biochemical; conditions: 5 μM
Procedure: as §1

DYRK3 = DYRK3 (Homo sapiens, UniProt O43781); test: SelectScreen kinase profiling; type: biochemical; conditions: 5 μM
Procedure: as §1

ERBB4 (HER4) = ERBB4 (HER4) (Homo sapiens, UniProt Q15303); test: SelectScreen kinase profiling; type: biochemical; conditions: 5 μM
Procedure: as §1

JAK3 = JAK3 (Homo sapiens, UniProt P52333); test: SelectScreen kinase profiling; type: biochemical; conditions: 5 μM
Procedure: as §1

RPS6KA3 (RSK2) = RPS6KA3 (RSK2) (Homo sapiens, UniProt P51812); test: SelectScreen kinase profiling; type: biochemical; conditions: 5 μM
Procedure: as §1

LYN B = LYN B (Homo sapiens, UniProt P07948); test: SelectScreen kinase profiling; type: biochemical; conditions: 5 μM
Procedure: as §1

BTK = BTK (Homo sapiens, UniProt Q06187); test: SelectScreen kinase profiling; type: biochemical; conditions: 5 μM
Procedure: as §1

BLK = BLK (Homo sapiens, UniProt P51451); test: SelectScreen kinase profiling; type: biochemical; conditions: 5 μM
Procedure: as §1

IGF1R = IGF1R (Homo sapiens, UniProt P08069); test: SelectScreen kinase profiling; type: biochemical; conditions: 5 μM
Procedure: as §1

ROCK1 = ROCK1 (Homo sapiens, UniProt Q13464); test: SelectScreen kinase profiling; type: biochemical; conditions: 5 μM
Procedure: as §1

PRKACA (PKA) = PRKACA (PKA) (Homo sapiens, UniProt P17612); test: SelectScreen kinase profiling; type: biochemical; conditions: 5 μM
Procedure: as §1

MAP2K6 (MKK6) = MAP2K6 (MKK6) (Homo sapiens, UniProt P52564); test: SelectScreen kinase profiling; type: biochemical; conditions: 5 μM
Procedure: as §1

AURKB (Aurora B) = AURKB (Aurora B) (Homo sapiens, UniProt Q96GD4); test: SelectScreen kinase profiling; type: biochemical; conditions: AURKB (Aurora B); 5 μM
Procedure: as §1

SYK = SYK (Homo sapiens, UniProt P43405); test: SelectScreen kinase profiling; type: biochemical; conditions: 5 μM
Procedure: as §1

PAK4 = PAK4 (Homo sapiens, UniProt O96013); test: SelectScreen kinase profiling; type: biochemical; conditions: 5 μM
Procedure: as §1

FLT3 = FLT3 (Homo sapiens, UniProt P36888); test: SelectScreen kinase profiling; type: biochemical; conditions: 5 μM
Procedure: as §1

IKBKB (IKK beta) = IKBKB (IKK beta) (Homo sapiens, UniProt O14920); test: SelectScreen kinase profiling; type: biochemical; conditions: 5 μM
Procedure: as §1

AURKC (Aurora C) = AURKC (Aurora C) (Homo sapiens, UniProt Q9UQB9); test: SelectScreen kinase profiling; type: biochemical; conditions: 5 μM
Procedure: as §1

AURKA (Aurora A) = target: T1, AURKA (Aurora A) (Homo sapiens, UniProt O14965); test: SelectScreen kinase profiling; type: biochemical; conditions: AURKA (Aurora A); 5 μM
T1 sequence (O14965 1-403): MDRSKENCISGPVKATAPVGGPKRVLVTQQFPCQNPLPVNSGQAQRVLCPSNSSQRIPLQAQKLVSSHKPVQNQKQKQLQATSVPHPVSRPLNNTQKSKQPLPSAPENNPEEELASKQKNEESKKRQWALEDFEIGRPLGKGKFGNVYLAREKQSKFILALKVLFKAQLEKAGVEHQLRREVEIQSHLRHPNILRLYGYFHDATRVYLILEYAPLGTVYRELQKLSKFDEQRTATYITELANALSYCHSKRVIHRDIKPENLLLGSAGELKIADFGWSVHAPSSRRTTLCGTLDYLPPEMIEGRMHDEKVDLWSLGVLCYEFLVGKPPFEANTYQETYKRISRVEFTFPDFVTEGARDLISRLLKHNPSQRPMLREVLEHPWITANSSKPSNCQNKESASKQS
Procedure: as §1

MET (cMet) = MET (cMet) (Homo sapiens, UniProt P08581); test: SelectScreen kinase profiling; type: biochemical; conditions: 5 μM
Procedure: as §1

FYN = FYN (Homo sapiens, UniProt P06241); test: SelectScreen kinase profiling; type: biochemical; conditions: FYN; 5 μM
Procedure: as §1

MAP2K1 (MEK1) = MAP2K1 (MEK1) (Homo sapiens, UniProt Q02750); test: SelectScreen kinase profiling; type: biochemical; conditions: 5 μM
Procedure: as §1

Chain of IKBKB (IKK beta) (O14920 whole entry): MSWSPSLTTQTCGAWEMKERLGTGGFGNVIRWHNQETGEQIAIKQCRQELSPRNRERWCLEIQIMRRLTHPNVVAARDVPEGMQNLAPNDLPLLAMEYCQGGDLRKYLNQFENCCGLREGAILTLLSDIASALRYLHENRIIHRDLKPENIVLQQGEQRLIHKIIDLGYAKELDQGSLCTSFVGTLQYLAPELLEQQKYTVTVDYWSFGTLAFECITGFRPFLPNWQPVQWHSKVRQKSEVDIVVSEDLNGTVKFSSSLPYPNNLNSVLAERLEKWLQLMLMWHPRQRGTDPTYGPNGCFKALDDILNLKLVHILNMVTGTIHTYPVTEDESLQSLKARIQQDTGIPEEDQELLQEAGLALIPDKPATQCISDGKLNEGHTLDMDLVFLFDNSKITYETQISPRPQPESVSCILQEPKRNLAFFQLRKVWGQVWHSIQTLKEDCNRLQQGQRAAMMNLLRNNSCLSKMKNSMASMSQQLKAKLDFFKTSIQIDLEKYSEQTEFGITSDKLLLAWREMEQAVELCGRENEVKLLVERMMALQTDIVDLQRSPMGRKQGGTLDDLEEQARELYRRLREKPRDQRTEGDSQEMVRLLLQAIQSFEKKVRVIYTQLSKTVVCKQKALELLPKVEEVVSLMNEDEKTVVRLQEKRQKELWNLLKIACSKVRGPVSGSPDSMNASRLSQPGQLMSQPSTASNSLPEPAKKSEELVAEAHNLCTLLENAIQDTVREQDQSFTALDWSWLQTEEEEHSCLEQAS
Chain of BLK (P51451 whole entry): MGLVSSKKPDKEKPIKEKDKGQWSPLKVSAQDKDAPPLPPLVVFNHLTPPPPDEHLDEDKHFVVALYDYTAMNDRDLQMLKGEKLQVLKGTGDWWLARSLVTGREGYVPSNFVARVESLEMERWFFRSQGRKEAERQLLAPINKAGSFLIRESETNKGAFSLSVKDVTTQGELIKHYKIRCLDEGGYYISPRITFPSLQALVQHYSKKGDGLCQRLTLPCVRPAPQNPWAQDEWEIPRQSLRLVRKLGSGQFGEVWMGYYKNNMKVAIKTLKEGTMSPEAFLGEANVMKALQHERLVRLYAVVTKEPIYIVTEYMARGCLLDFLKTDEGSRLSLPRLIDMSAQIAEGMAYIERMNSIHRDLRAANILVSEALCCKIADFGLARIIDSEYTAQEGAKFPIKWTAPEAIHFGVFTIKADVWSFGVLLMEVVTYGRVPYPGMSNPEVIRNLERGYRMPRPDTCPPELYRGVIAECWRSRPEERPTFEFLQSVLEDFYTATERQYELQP
Chain of MARK2 (Q7KZI7 whole entry): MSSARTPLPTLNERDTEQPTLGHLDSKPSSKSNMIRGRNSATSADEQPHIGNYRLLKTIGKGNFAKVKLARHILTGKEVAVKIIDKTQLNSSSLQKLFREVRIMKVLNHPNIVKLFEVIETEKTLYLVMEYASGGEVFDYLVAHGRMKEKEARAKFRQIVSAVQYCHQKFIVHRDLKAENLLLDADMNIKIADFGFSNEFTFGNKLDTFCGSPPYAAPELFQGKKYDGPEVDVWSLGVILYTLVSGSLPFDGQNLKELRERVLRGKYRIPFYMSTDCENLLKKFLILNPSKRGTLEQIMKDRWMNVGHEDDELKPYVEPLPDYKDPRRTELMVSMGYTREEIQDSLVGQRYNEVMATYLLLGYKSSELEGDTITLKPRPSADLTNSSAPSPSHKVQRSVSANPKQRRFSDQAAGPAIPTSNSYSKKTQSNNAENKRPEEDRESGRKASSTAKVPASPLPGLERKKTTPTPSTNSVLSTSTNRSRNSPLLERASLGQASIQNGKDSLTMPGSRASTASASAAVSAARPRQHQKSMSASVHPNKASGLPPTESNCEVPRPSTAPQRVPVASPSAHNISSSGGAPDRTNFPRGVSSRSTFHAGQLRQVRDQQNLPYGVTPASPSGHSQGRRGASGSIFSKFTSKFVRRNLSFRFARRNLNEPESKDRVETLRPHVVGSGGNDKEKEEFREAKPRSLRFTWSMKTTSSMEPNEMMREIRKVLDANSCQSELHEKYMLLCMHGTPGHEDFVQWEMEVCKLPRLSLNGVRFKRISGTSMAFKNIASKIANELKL
Chain of RPS6KA3 (RSK2) (P51812 whole entry): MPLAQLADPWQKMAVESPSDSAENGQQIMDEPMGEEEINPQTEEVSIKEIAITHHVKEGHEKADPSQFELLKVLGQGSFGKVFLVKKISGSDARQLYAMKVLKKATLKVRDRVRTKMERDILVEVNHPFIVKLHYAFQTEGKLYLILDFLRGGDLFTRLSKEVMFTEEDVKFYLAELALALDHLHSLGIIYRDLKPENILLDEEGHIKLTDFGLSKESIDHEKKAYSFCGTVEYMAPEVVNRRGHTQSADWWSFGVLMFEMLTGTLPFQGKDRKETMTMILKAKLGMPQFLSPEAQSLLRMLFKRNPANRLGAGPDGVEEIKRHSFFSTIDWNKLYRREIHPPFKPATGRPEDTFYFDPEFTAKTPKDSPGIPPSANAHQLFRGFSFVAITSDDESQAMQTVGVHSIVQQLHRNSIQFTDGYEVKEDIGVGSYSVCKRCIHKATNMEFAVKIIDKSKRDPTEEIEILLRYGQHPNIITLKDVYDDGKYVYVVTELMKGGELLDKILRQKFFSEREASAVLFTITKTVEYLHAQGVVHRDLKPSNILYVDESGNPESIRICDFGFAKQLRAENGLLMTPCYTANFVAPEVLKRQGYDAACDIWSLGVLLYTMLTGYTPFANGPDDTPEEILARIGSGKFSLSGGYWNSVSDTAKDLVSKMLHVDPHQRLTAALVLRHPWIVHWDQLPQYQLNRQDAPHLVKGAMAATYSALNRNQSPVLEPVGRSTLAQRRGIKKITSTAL
Chain of RET (P07949 29-1114): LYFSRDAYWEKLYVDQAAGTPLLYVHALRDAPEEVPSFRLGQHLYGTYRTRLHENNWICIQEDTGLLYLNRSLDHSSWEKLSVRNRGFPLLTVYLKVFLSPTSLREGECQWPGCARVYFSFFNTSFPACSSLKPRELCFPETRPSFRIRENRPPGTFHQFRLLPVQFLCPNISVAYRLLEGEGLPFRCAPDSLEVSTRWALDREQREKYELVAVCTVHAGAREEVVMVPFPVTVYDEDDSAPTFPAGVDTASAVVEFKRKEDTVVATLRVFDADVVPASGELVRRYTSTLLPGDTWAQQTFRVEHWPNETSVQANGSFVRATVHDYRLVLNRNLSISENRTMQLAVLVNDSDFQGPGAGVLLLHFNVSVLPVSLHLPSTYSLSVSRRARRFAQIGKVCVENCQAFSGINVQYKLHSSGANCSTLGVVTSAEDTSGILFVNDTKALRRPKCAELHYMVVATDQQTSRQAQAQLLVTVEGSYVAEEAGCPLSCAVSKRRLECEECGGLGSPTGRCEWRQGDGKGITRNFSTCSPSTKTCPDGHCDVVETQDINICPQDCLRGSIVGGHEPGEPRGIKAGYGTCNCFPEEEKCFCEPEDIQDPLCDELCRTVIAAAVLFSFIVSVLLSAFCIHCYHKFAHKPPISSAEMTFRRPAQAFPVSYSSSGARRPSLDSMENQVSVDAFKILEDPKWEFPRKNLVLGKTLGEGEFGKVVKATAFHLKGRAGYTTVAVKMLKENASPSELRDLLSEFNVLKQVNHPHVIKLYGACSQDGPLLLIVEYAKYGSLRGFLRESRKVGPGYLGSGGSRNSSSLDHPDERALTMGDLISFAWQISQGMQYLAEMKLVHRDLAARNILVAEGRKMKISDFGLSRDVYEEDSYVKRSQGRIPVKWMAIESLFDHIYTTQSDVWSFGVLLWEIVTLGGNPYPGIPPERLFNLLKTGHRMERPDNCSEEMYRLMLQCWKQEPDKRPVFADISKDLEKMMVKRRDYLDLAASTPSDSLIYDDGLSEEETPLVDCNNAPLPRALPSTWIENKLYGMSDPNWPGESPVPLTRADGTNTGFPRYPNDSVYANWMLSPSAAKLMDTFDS
Chain of LYN B (P07948 1-491 isoform P07948-2): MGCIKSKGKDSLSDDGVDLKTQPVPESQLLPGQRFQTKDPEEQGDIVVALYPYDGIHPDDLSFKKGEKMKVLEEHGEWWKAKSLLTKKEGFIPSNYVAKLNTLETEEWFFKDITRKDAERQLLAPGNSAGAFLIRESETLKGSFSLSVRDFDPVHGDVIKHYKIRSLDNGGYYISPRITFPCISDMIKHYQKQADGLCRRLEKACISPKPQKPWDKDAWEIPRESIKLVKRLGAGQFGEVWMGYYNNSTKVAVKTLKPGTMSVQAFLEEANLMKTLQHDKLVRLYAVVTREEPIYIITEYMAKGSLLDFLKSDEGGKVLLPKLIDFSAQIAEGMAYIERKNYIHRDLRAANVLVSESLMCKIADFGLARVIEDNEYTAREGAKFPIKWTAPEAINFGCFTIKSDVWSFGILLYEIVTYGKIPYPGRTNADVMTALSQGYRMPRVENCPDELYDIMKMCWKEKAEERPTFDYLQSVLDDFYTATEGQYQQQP
Chain of DYRK3 (O43781 whole entry): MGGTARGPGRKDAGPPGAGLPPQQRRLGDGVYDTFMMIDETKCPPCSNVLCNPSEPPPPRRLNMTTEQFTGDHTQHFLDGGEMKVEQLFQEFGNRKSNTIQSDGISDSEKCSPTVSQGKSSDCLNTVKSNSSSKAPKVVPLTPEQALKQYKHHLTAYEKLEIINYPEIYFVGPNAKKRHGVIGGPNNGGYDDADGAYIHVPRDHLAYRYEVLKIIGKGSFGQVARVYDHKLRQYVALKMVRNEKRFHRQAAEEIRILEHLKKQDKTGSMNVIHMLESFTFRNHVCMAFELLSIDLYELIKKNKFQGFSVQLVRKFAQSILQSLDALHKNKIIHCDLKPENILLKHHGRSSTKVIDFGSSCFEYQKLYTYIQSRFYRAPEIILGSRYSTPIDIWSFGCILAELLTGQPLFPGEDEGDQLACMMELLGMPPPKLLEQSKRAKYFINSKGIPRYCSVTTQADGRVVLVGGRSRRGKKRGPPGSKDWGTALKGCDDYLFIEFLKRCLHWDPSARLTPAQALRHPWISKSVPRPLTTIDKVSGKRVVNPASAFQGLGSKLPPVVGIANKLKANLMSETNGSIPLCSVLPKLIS

NC(=O)[C@@H]1CCCNC(=O)[C@H](Cc2ccc([N+](=O)[O-])cc2)NC(=O)[C@H](Cc2ccco2)NC(=O)[C@H](CC2CC2)NC(=O)/C=C/C(=O)N1 [trans-A10-B1-C5-D6]
off-target inhibition in kinase panel (in words) [1]: no significant off-target inhibition | inhibition of Src Thr338Ile gatekeeper mutant (in words) (Src Thr338Ile): retained their inhibition potency | % inhibition (MAP4K4 (HGK)): −1% | % inhibition (LCK): 17% | % inhibition (MARK2): 1% | % inhibition (LYN A): 9% | % inhibition (AMPK A1/B1/G1): −1% | % inhibition (RET): 6% | % inhibition (DYRK3): 4% | % inhibition (ERBB4 (HER4)): 4% | % inhibition (JAK3): −7% | % inhibition (RPS6KA3 (RSK2)): −4% | % inhibition (LYN B): 7% | % inhibition (BTK): 4% | % inhibition (BLK): 10% | % inhibition (IGF1R): 9% | % inhibition (ROCK1): 12% | % inhibition (PRKACA (PKA)): −1% | % inhibition (MAP2K6 (MKK6)): −1% | % inhibition (AURKB (Aurora B)): 0% | % inhibition (SYK): −1% | % inhibition (PAK4): −2% | % inhibition (FLT3): 7% | % inhibition (IKBKB (IKK beta)): −1% | % inhibition (AURKC (Aurora C)): 2% | % inhibition (AURKA (Aurora A)): 10% | % inhibition (MET (cMet)): −8% | % inhibition (FYN): −1% | % inhibition (MAP2K1 (MEK1)): −6%
